Where two headings read alike, the source gives them in different places.
Experiments:
NTRK2 = NTRK2 (Homo sapiens (Human), UniProt Q16620); test: NTRK2 inhibition (IC50); assay type: biochemical
NTRK1 = NTRK1 (Homo sapiens (Human), UniProt P04629); test: NTRK1 inhibition (IC50)
NTRK3 = NTRK3 (Homo sapiens (Human), UniProt Q16288); test: NTRK3 inhibition (IC50); details: read-out: NTRK3 IC50
Chain of NTRK3 (Q16288 32-839): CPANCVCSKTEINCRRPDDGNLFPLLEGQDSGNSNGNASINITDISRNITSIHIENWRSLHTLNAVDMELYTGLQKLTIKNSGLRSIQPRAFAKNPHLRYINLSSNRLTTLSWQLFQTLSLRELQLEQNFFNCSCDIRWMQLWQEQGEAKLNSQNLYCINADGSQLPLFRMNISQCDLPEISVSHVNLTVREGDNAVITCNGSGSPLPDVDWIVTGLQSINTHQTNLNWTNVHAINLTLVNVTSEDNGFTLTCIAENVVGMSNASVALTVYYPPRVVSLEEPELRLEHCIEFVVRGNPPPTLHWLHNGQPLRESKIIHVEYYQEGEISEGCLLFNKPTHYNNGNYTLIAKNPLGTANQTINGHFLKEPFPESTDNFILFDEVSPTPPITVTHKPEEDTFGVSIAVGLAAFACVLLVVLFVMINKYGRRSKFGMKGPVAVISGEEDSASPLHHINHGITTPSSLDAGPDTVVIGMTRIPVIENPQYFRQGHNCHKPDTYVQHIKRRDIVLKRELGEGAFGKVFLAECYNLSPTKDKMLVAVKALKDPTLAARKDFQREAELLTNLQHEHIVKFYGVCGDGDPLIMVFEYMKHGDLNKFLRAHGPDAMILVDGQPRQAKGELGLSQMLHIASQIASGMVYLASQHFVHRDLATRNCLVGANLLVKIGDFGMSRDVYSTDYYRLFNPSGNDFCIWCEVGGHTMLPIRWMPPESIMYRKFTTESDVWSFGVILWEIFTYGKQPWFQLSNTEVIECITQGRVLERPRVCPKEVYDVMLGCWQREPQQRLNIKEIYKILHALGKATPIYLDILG

Chain of NTRK2 (Q16620 32-822): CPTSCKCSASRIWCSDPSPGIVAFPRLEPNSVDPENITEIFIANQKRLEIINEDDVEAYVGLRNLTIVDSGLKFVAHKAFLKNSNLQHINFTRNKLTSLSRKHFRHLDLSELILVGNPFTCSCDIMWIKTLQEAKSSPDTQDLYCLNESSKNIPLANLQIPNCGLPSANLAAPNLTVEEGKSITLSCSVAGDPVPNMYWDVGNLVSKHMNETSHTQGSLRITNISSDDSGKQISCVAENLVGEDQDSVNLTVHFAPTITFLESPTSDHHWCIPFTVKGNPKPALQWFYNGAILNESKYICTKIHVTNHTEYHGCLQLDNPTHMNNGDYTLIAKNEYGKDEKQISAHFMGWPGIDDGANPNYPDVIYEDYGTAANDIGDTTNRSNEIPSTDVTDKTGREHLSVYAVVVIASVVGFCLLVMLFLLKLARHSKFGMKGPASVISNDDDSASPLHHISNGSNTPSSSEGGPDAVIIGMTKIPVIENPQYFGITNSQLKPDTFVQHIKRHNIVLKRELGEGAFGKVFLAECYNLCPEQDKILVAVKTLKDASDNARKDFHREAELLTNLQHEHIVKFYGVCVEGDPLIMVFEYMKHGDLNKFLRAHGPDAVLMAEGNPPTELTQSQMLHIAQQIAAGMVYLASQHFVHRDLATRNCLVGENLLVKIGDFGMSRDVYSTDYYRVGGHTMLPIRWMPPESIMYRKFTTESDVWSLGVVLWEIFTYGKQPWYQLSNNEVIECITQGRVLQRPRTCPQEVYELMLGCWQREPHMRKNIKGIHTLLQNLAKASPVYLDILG
Chain of NTRK1 (P04629 33-796): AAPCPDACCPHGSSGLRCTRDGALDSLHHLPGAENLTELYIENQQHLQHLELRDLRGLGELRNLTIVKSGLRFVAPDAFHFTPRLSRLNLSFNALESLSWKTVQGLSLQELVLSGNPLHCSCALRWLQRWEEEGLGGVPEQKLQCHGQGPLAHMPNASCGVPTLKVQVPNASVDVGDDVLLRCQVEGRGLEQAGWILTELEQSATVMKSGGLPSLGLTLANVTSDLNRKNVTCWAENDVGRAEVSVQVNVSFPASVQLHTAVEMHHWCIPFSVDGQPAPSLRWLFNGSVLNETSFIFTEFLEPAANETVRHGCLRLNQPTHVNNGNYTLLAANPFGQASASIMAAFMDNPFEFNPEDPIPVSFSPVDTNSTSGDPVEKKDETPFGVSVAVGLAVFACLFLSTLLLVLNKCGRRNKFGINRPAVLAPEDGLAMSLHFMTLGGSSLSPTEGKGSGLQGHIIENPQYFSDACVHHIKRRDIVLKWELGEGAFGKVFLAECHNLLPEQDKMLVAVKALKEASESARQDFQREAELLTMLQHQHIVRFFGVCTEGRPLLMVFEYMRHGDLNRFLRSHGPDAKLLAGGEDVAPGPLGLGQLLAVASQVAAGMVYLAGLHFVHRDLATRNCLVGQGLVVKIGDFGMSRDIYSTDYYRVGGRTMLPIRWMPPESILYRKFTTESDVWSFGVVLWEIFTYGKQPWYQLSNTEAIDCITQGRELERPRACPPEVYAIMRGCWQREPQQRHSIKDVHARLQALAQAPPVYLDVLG

| Structure (SMILES) | IC50 (NTRK2) [nM] | IC50 (NTRK1; read-out: NTRK1 IC50) [nM] | IC50 (NTRK3) [nM] | IC50 (NTRK1) [nM] |
| --- | --- | --- | --- | --- |
| O=C(Nc1ccc(OC(F)(F)F)cc1)N(Cc1ccn2nccc2c1)c1ccccc1 [CDD-2296, 1-phenyl-1-(pyrazolo[1,5-a]pyridin-5-ylmethyl)-3-(4-(trifluoromethoxy)phenyl)urea] | 335 |  |  |  |
| O=C(Nc1ccc([N+](=O)[O-])cc1)N(Cc1ccn2nccc2c1)C1CCC1 [CDD-2297, 1-cyclobutyl-3-(4-nitrophenyl)-1-(pyrazolo[1,5-a]pyridin-5-ylmethyl)urea] | > 10000 |  |  |  |
| O=C(Nc1ccc(OC(F)(F)F)cc1)N(Cc1ccn2nccc2c1)C1CCCCC1 [CDD-2298, 1-cyclohexyl-1-(pyrazolo[1,5-a]pyridin-5-ylmethyl)-3-(4-(trifluoromethoxy)phenyl)urea] | 99 |  |  |  |
| O=C(Nc1ccccc1OC(F)(F)F)N(Cc1ccn2nccc2c1)C1CCC1 [CDD-2300, 1-cyclobutyl-1-(pyrazolo[1,5-a]pyridin-5-ylmethyl)-3-(2-(trifluoromethoxy)phenyl)urea] | > 10000 |  |  |  |
| O=C(Nc1ccc(OC(F)(F)F)cc1)N(Cc1ccn2nccc2c1)C1CCCCCC1 [CDD-2301, 1-cycloheptyl-1-(pyrazolo[1,5-a]pyridin-5-ylmethyl)-3-(4-(trifluoromethoxy)phenyl)urea] | 513 |  |  |  |
| CC(C)N(Cc1ccn2ncc(Br)c2c1)C(=O)Nc1ccc(OC(F)(F)F)cc1 [CDD-2735, 1-((3-bromopyrazolo[1,5-a]pyridin-5-yl)methyl)-1-isopropyl-3-(4-(trifluoromethoxy)phenyl)urea] | 3.6 | 4.3 | 4.4 |  |
| O=C(O)c1cnn2ccc(CN(C(=O)Nc3ccc(OC(F)(F)F)cc3)C3CC3)cc12 [CDD-2736, 5-((1-cyclopropyl-3-(4-(trifluoromethoxy)phenyl)ureido)methyl)pyrazolo[1,5-a]pyridine-3-carboxylic acid] | 2.5 | 4.1 | 3.3 |  |
| CC(C)CN(Cc1ccn2ncc(C(=O)O)c2c1)C(=O)Nc1ccc(OC(F)(F)F)cc1 [CDD-2742, 5-((1-isobutyl-3-(4-(trifluoromethoxy)phenyl)ureido)methyl)pyrazolo[1,5-a]pyridine-3-carboxylic acid] | 5.7 | 104 | 11.8 |  |
| CCC(C)N(Cc1ccn2ncc(C(=O)O)c2c1)C(=O)Nc1ccc(OC(F)(F)F)cc1 (stereo not shown) [CDD-2743, 5-((1-(sec-butyl)-3-(4-(trifluoromethoxy)phenyl)ureido)methyl)pyrazolo[1,5-a]pyridine-3-carboxylic acid] | 6 | 9.5 | 5.4 |  |
| CC[C@@H](C)N(Cc1ccn2ncc(C(N)=O)c2c1)C(=O)Nc1ccc(OC(F)(F)F)cc1 [CDD-3057, (R)-5-((1-(sec-butyl)-3-(4-(trifluoromethoxy)phenyl)ureido)methyl)pyrazolo[1,5-a]pyridine-3-carboxamide] | 4 | 17.6 | 6.6 |  |
| CC[C@H](C)N(Cc1ccn2ncc(C(N)=O)c2c1)C(=O)Nc1ccc(OC(F)(F)F)cc1 [CDD-3058, (S)-5-((1-(sec-butyl)-3-(4-(trifluoromethoxy)phenyl)ureido)methyl)pyrazolo[1,5-a]pyridine-3-carboxamide] | 3.7 | 11.7 | 8.4 |  |
| CN(C)C(=O)[C@H](Cc1cccc([N+](=O)[O-])c1)NC(=O)Nc1c(Cl)cccc1C(F)(F)F [CDD-3099, (S)-2-(3-(2-chloro-6-(trifluoromethyl)phenyl)ureido)-N,N-dimethyl-3-(3-nitrophenyl)propanamide] | 47400 |  |  | 39600 |
| CNC(=O)[C@@H](Cc1ccc([N+](=O)[O-])cc1)NC(=O)Nc1ccc(Oc2ccccc2)cc1 [CDD-3100, (R)-N-methyl-3-(4-nitrophenyl)-2-(3-(4-phenoxyphenyl)ureido)propanamide] | 37200 | 26300 |  |  |
| CC(C)c1ccc(OCC(=O)N(C)Cc2ccn3ncc(C(N)=O)c3c2)cc1 [CDD-3120, 5-((2-(4-isopropylphenoxy)-N-methylacetamido)methyl)pyrazolo[1,5-a]pyridine-3-carboxamide] | 242 | 1780 |  |  |
| CN(Cc1ccn2ncc(C(N)=O)c2c1)C(=O)CCc1ccc(OC(F)(F)F)cc1 [CDD-3121, 5-((N-methyl-3-(4-(trifluoromethoxy)phenyl)propanamido)methyl)pyrazolo[1,5-a]pyridine-3-carboxamide] | 3240 | 11600 |  |  |
| CC(C)c1ccc(OCC(=O)NCc2ccn3ncc(C(N)=O)c3c2)cc1 [CDD-3129, 5-((2-(4-isopropylphenoxy)acetamido)methyl)pyrazolo[1,5-a]pyridine-3-carboxamide] | 3760 | 9540 |  |  |
| NC(=O)c1cnn2ccc(CNC(=O)Nc3ccc(OC(F)(F)F)cc3)cc12 [CDD-3130, 5-((3-(4-(trifluoromethoxy)phenyl)ureido)methyl)pyrazolo[1,5-a]pyridine-3-carboxamide] | 1260 | 9200 |  |  |
| CN(Cc1ccn2ncc(C(N)=O)c2c1)C(=O)COc1ccc(C(F)(F)F)cc1 [CDD-3181, 5-((N-methyl-2-(4-(trifluoromethyl)phenoxy)acetamido)methyl)pyrazolo[1,5-a]pyridine-3-carboxamide] | 1060 | 6720 |  |  |
| CN(Cc1ccn2ncc(C(N)=O)c2c1)C(=O)COc1cccc(OC(F)(F)F)c1 [CDD-3182, 5-((N-methyl-2-(3-(trifluoromethoxy)phenoxy)acetamido)methyl)pyrazolo[1,5-a]pyridine-3-carboxamide] | 354 | 4060 |  |  |
| CN(Cc1ccn2ncc(C(N)=O)c2c1)C(=O)COc1ccc(C(C)(C)C)cc1 [CDD-3183, 5-((2-(4-(tert-butyl)phenoxy)-N-methylacetamido)methyl)pyrazolo[1,5-a]pyridine-3-carboxamide] | 247 | 3610 |  |  |
| CN(Cc1ccn2ncc(C(N)=O)c2c1)C(=O)CN(C)c1ccc(C(C)(C)C)cc1 [CDD-3185, 5-((2-((4-(tert-butyl)phenyl)(methyl)amino)-N-methylacetamido)methyl)pyrazolo[1,5-a]pyridine-3-carboxamide] | 1750 | 10900 |  |  |
| CC(C)N(Cc1ccc2[nH]ccc2c1)C(=O)COc1ccc(OC(F)(F)F)cc1 [CDD-3264, N-((1H-indol-5-yl)methyl)-N-isopropyl-2-(4-(trifluoromethoxy)phenoxy)acetamide] | 2090 | 43900 | 21800 |  |
| CC(C)N(Cc1ccc2[nH]ccc2c1)C(=O)Nc1ccc(OC(F)(F)F)cc1 [CDD-3265, 1-((1H-indol-5-yl)methyl)-1-isopropyl-3-(4-(trifluoromethoxy)phenyl)urea] | 53700 | 50100 | 55100 |  |
| CC(C)N(Cc1ccn2nccc2c1)C(=O)CNc1ccc(C(C)(C)C)nc1 [CDD-3306, 2-((6-(tert-butyl)pyridin-3-yl)amino)-N-isopropyl-N-(pyrazolo[1,5-a]pyridin-5-ylmethyl)acetamide] | 1130 | 2410 | 4770 |  |
| CC(C)N(Cc1ccn2nccc2c1)C(=O)CNc1ccc(C2(C(F)(F)F)CC2)cc1 [CDD-3307, N-isopropyl-N-(pyrazolo[1,5-a]pyridin-5-ylmethyl)-2-((4-(1-(trifluoromethyl)cyclopropyl)phenyl)amino)acetamide] | 414 | 2170 | 922 |  |

From US20260049077A1, “Neurotrophic Receptor Tyrosine Kinase (NTRK) Inhibitors and Methods Using Same” (Baylor College of Medicine, priority 2022, published 2026)
